One block for each molecule: values may come before it.
Assays:
[1] = molecular target: T1, GST-ASPG (human ASPG, 60 kDa Lysophospholipase) (Homo sapiens, UniProt Q86U10); assay: PAF acetylhydrolase assay kit (2-thio PAF, DTNB, […] nm); type: biochemical; settings: 200 µM 2-thio-PAF, Tris/HCl pH 7.2, 10 min pre-incubation
T1 construct: full-length cDNA in pGEX-4T3, N-terminal GST tag kept, E. coli BL21, glutathione Sepharose
T1 sequence (Q86U10 1-573): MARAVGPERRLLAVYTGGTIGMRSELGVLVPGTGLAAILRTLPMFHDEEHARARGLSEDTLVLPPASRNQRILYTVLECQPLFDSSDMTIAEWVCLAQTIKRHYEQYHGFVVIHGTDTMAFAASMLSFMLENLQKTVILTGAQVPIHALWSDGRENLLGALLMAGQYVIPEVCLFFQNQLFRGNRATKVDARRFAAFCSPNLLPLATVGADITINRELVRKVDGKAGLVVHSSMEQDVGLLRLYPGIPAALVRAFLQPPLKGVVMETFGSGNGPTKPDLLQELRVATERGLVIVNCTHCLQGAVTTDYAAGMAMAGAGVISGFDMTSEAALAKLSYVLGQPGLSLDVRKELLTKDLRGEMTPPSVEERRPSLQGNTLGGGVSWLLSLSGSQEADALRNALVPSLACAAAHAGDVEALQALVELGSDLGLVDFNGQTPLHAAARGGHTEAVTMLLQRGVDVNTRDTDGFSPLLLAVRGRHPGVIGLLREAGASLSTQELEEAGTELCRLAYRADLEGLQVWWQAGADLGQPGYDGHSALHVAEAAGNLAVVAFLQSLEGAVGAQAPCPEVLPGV

[2] = molecular target: T1, GST-ASPG (human ASPG, 60 kDa Lysophospholipase); assay: Nessler ammonia assay, steady-state inhibition kinetics; type: biochemical
[3] = substrate: NC(=O)C[C@H](N)C(=O)O; assay: Nessler ammonia assay, Hill fit; type: biochemical, Homo sapiens; settings: Tris/HCl pH 8.6, 37 °C, 30 min, 3-39 mM substrate, sigmoidal kinetics, Hill slope 6.9

Ki [2]: 71 mM
Molecule: NC(=O)C[C@@H](N)C(=O)O [D-asparagine]
residual PAF-AH activity at 40 and 200 mM [1]: PAF-AH activity of GST-ASPG was also significantly inhibited by D-asparagine

B1: GST-ASPG (human ASPG, 60 kDa Lysophospholipase) (Homo sapiens) (protein)
chain: T1 sequence (Q86U10 1-573)
notes: full-length cDNA in pGEX-4T3, N-terminal GST tag kept, E. coli BL21, glutathione Sepharose
K0.5 [3]: 13 mM
